The record followed here is ChEMBL document CHEMBL1201862, “PubChem BioAssay data set” (2004).

Some test systems named below: SF-268; NCI-H226; SK-OV-3; PC-3; MDA-MB-231; SR; SK-MEL-5; EKVX; COLO 205; U-251; SNB-75; TK-10; NCI-H460; SW-620; OVCAR-4; SNB-19; M14; CAKI-1; UACC-62; RXF 393.
Holding throughout (assay): inhibition of tumour cell growth, NCI panel, 48 h

Structures are written as SMILES.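 Assay format: 96-well plates, 48-hour exposure. GI50: concentration for 50% inhibition of growth.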 Activity calls are given as the source filed them. No stated cut-off is given here; in the data, active = GI50 up to about 1.1 µM and inactive = higher.

As to `C=CCC1C2CCC(O[Si](C(C)C)(C(C)C)C(C)C)(C(C(=O)OC)C2)C1O` (stereo unspecified), the GI50 in the assay on SF-268 was > 100 µM (inactive); in the assay on NCI-H226, > 100 µM (inactive); in the assay with SK-OV-3 it was > 100 µM (inactive); in the assay with PC-3, 67.5 µM (inactive); in the assay with MDA-MB-231 it was > 100 µM (inactive); in the assay with SR it was 17.6 µM (inactive). For the same compound, the GI50 was 53 µM (inactive) with SK-MEL-5; 22.4 µM (inactive) in the assay with EKVX; > 100 µM (inactive) with COLO 205; 60.3 µM (inactive) with U-251; 71.1 µM (inactive) with SNB-75; 14.4 µM (inactive) with TK-10. Moreover, the GI50 in the assay on NCI-H460 is 61.8 µM (inactive); in the assay with SW-620, > 100 µM (inactive); with OVCAR-4 it was > 100 µM (inactive); in the assay with SNB-19, > 100 µM (inactive); with M14, 94.8 µM (inactive); in the assay with CAKI-1, > 100 µM (inactive). For the same compound, in the assay on UACC-62, the GI50 was 55.2 µM (inactive).
Take `COc1cc([N+](=O)[O-])c(S(=O)(=O)O)cc1N`: the GI50 with SF-268, with NCI-H226, in the assay with SK-OV-3, in the assay on PC-3, with MDA-MB-231 and in the assay with SR was > 100 µM (inactive) throughout. In addition, the GI50 in the assay with SK-MEL-5, in the assay on EKVX, in the assay with COLO 205, in the assay on U-251, with SNB-75 and with TK-10 was > 100 µM (inactive) throughout. In addition, the GI50 in the assay on NCI-H460, in the assay with SW-620, with OVCAR-4, with SNB-19, with M14 and in the assay with CAKI-1 was > 100 µM (inactive) throughout. Moreover, in the assay with UACC-62, the GI50 was > 100 µM (inactive).
As to `CC(C)(C)c1cc(S(=O)(=O)O)c2oc(-c3ccccc3)cc(=O)c2c1`, the GI50 in the assay on SF-268, in the assay on NCI-H226, in the assay on RXF 393, in the assay with PC-3, in the assay on MDA-MB-231 and in the assay on SR was > 100 µM (inactive) throughout. The GI50 in the assay with SK-MEL-5, with EKVX, with COLO 205, with U-251, in the assay on SNB-75 and with TK-10 was > 100 µM (inactive) each time. In addition, the GI50 in the assay with NCI-H460, in the assay on SW-620, with SNB-19 and with CAKI-1 was > 100 µM (inactive) throughout.
`O=C(CN1CCCCC1)Nc1ccc2sc3ccccc3c(=O)c2n1`: the GI50 is 24.2 µM (inactive) in the assay on SF-268; 21.3 µM (inactive) with SK-OV-3; 10.9 µM (inactive) with PC-3; 18.5 µM (inactive) in the assay on MDA-MB-231; 21.5 µM (inactive) with SR; 15.8 µM (inactive) with SK-MEL-5. Also, the GI50 in the assay on EKVX was 22.7 µM (inactive); with COLO 205, 10.8 µM (inactive); in the assay with U-251, 16.6 µM (inactive); with SNB-75, 15.2 µM (inactive); in the assay on TK-10 it was 19.1 µM (inactive); in the assay on NCI-H460, 13.2 µM (inactive). Further, the GI50 was 5.25 µM (inactive) in the assay with SW-620; 30.1 µM (inactive) in the assay with OVCAR-4; 19.9 µM (inactive) in the assay on SNB-19; 17.9 µM (inactive) with M14; 13.6 µM (inactive) in the assay on CAKI-1; 15.4 µM (inactive) in the assay with UACC-62.
Regarding `COC(=O)CP1(=O)OC2C(C3CCC2(C)C3(C)C)N1c1cc(C(F)(F)F)cc(C(F)(F)F)c1` (stereo unspecified), the GI50 with SF-268 is 23 µM (inactive); in the assay with NCI-H226 it was 31.6 µM (inactive); in the assay on SK-OV-3 it was 33.4 µM (inactive); in the assay on PC-3, 19.9 µM (inactive); in the assay with MDA-MB-231, 20.6 µM (inactive); in the assay with SR it was 24.8 µM (inactive). Moreover, the GI50 is 36.3 µM (inactive) in the assay with SK-MEL-5; 30.5 µM (inactive) in the assay with EKVX; 24 µM (inactive) with COLO 205; 26.1 µM (inactive) in the assay with U-251; 15.7 µM (inactive) with SNB-75; 24.7 µM (inactive) with TK-10. For the same compound, the GI50 in the assay on NCI-H460 is 22.2 µM (inactive); in the assay with SW-620, 24.1 µM (inactive); in the assay with OVCAR-4 it was 13.5 µM (inactive); in the assay on SNB-19 it was 32.7 µM (inactive); with M14, 32.3 µM (inactive); with CAKI-1, 24.9 µM (inactive). Besides, the GI50 in the assay on UACC-62 is > 100 µM (inactive).
In the case of `CCOC(=O)n1c2ccccc2c2c(O)c(OC)c3c(c21)C(=O)NC3=O`, the GI50 in the assay with NCI-H226 is 7.59 µM (inactive); with SK-OV-3, 34.6 µM (inactive); in the assay with PC-3, 45.8 µM (inactive); with MDA-MB-231, 20.6 µM (inactive); in the assay with SR, 20.5 µM (inactive); in the assay with SK-MEL-5 it was 37.1 µM (inactive). Further, the GI50 in the assay with EKVX is > 100 µM (inactive); in the assay on COLO 205 it was 21.4 µM (inactive); with U-251, 32 µM (inactive); in the assay with SNB-75, 37.8 µM (inactive); in the assay on TK-10, 52.1 µM (inactive); in the assay on NCI-H460, 13.9 µM (inactive). Besides, the GI50 was 35.5 µM (inactive) in the assay on SW-620; 44.6 µM (inactive) in the assay on OVCAR-4; 84.5 µM (inactive) in the assay with SNB-19; 25.8 µM (inactive) with M14; 20.7 µM (inactive) with CAKI-1; 37.7 µM (inactive) in the assay on UACC-62.
Turning to `O=C1c2ccccc2-c2ccc(O)cc21`, the GI50 with SF-268 was 19.1 µM (inactive); in the assay on NCI-H226, 26.3 µM (inactive); with RXF 393 it was 10.4 µM (inactive); with PC-3, 17.2 µM (inactive); with MDA-MB-231, 16.9 µM (inactive); in the assay on SR it was 12 µM (inactive). Moreover, the GI50 with SK-MEL-5 was 19.4 µM (inactive); with EKVX, 16.4 µM (inactive); in the assay with COLO 205 it was 19.7 µM (inactive); with U-251 it was 26.7 µM (inactive); in the assay on SNB-75, 29 µM (inactive); in the assay with TK-10, 24.5 µM (inactive). Moreover, the GI50 was 20.1 µM (inactive) in the assay on NCI-H460; 42.3 µM (inactive) in the assay on SW-620; 20.7 µM (inactive) with OVCAR-4; 23.9 µM (inactive) in the assay with SNB-19; 26.1 µM (inactive) with M14; 14.8 µM (inactive) in the assay on CAKI-1. Further, in the assay with UACC-62, the GI50 was 15.3 µM (inactive).
On to `C1=Cc2cccc3occ(c23)C=C1`, for which the GI50 was > 100 µM (inactive) with SF-268; 24.1 µM (inactive) with NCI-H226; > 100 µM (inactive) in the assay with SK-OV-3; 25.8 µM (inactive) with RXF 393; 66.4 µM (inactive) in the assay with PC-3; > 100 µM (inactive) in the assay with MDA-MB-231. Further, the GI50 was 15.8 µM (inactive) with SR; > 100 µM (inactive) in the assay with SK-MEL-5; 49.3 µM (inactive) in the assay on EKVX; 29 µM (inactive) in the assay with COLO 205; 36.3 µM (inactive) with U-251; 36 µM (inactive) in the assay with TK-10. Moreover, the GI50 in the assay on NCI-H460 was 41.3 µM (inactive); with SW-620 it was 39.1 µM (inactive); in the assay on OVCAR-4, 56.9 µM (inactive); in the assay with SNB-19, 95.1 µM (inactive); in the assay on M14, > 100 µM (inactive); in the assay with CAKI-1, > 100 µM (inactive). Besides, the GI50 in the assay with UACC-62 was 39.3 µM (inactive).
Take `CCOc1c(OC)cc(CNNc2nccs2)cc1OC`: the GI50 with SF-268 was > 100 µM (inactive); with NCI-H226, > 100 µM (inactive); in the assay with RXF 393, > 100 µM (inactive); in the assay on PC-3, 41.9 µM (inactive); with MDA-MB-231, 94.2 µM (inactive); with SR it was 29.5 µM (inactive). Further, the GI50 with SK-MEL-5 was 12.9 µM (inactive); with EKVX, 19.3 µM (inactive); with COLO 205, 51.4 µM (inactive); with U-251, 32.7 µM (inactive); in the assay with SNB-75, 34.8 µM (inactive); in the assay with TK-10, > 100 µM (inactive). Also, the GI50 in the assay on NCI-H460 is 27 µM (inactive); in the assay with SW-620, > 100 µM (inactive); in the assay with OVCAR-4, > 100 µM (inactive); with SNB-19, > 100 µM (inactive); with M14, 42.1 µM (inactive); with CAKI-1 it was > 100 µM (inactive).
On to `Cn1cnc(N2CCCC2)c(C#N)c1=S`, for which the GI50 in the assay on SF-268, with NCI-H226, in the assay on RXF 393, with PC-3, in the assay with MDA-MB-231 and in the assay with SR was > 100 µM (inactive) each time. Moreover, the GI50 with SK-MEL-5 is > 100 µM (inactive); in the assay with EKVX, 94.4 µM (inactive); with COLO 205, > 100 µM (inactive); in the assay on U-251 it was > 100 µM (inactive); in the assay on TK-10, > 100 µM (inactive); with NCI-H460, > 100 µM (inactive). Besides, the GI50 in the assay on SW-620 is > 100 µM (inactive); with OVCAR-4 it was > 100 µM (inactive); in the assay with SNB-19 it was > 100 µM (inactive); with M14 it was > 100 µM (inactive); in the assay on CAKI-1, 35.9 µM (inactive); in the assay on UACC-62, > 100 µM (inactive).
`CSc1nn(C)cc2ncnc1-2`: the GI50 is > 100 µM (inactive) in the assay with SF-268; > 100 µM (inactive) in the assay with NCI-H226; > 100 µM (inactive) with RXF 393; > 100 µM (inactive) in the assay with PC-3; > 100 µM (inactive) with MDA-MB-231; 97.1 µM (inactive) with SR. For the same compound, the GI50 in the assay on SK-MEL-5 was > 100 µM (inactive); in the assay with EKVX, > 100 µM (inactive); in the assay on COLO 205, > 100 µM (inactive); in the assay on U-251, > 100 µM (inactive); in the assay on SNB-75 it was 0.206 µM (active); in the assay on TK-10 it was > 100 µM (inactive). For the same compound, the GI50 with NCI-H460, with SW-620, in the assay on SNB-19, in the assay with M14, in the assay with CAKI-1 and in the assay with UACC-62 was > 100 µM (inactive) each time.
